Reference: the supplement of paper PMC10307832

Key:
Experiment in all cases: relative viability (nuclei count vs DMSO), 5 days (fraction); higher = more cells survive
Cediranib + Tozasertib = compound: COc1cc2c(Oc3ccc4[nH]c(C)cc4c3F)ncnc2cc1OCCCN1CCCC1 [Cediranib] + Cc1cc(Nc2cc(N3CCN(C)CC3)nc(Sc3ccc(NC(=O)C4CC4)cc3)n2)n[nH]1 [Tozasertib] (partner 0.1 µM)
Summary of the method: (§1)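 Lung cancer cell lines in 1536-well plates were dosed by pin tool the day after seeding, either with one drug alone or with a fixed anchor-drug dose plus five library-drug doses (not always all listed) in √10 steps. After 5 days, cells were fixed and their nuclei stained in one step (final 0.05% Triton X-100, 1% formaldehyde, 1 ug/ml Hoechst), then counted on 4× images. Relative viability is the nuclei count in treated wells divided by that in vehicle wells. Values are medians of duplicate plates.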

Decitabine + Navitoclax = compound: Nc1ncn([C@H]2C[C@H](O)[C@@H](CO)O2)c(=O)n1 [Decitabine] + CC1(C)CCC(c2ccc(Cl)cc2)=C(CN2CCN(c3ccc(C(=O)NS(=O)(=O)c4ccc(N[C@H](CCN5CCOCC5)CSc5ccccc5)c(S(=O)(=O)C(F)(F)F)c4)cc3)CC2)C1 [Navitoclax] (partner 0.5 µM)
Summary of the method: as §1

Decitabine + Crizotinib = compound: Nc1ncn([C@H]2C[C@H](O)[C@@H](CO)O2)c(=O)n1 [Decitabine] + C[C@@H](Oc1cc(-c2cnn(C3CCNCC3)c2)cnc1N)c1c(Cl)ccc(F)c1Cl [Crizotinib] (partner 1 µM)
Summary of the method: as §1

[1] = compound: O=C(C[C@H]1NCCC[C@@H]1O)Cn1cnc2cc(Br)c(Cl)cc2c1=O (racemic) [Halofuginone] + O=C(CCCCCCC(=O)Nc1ccccc1)NO [Vorinostat] (partner 1 µM)
Summary of the method: as §1

UMC-11 was tested, and the relative viability (Cediranib + Tozasertib; first compound 0.04 µM) was 0.213, the relative viability (Cediranib + Tozasertib; first compound 0.4 µM) was 0.201 and the relative viability (Cediranib + Tozasertib; first compound 4 µM) was 0.2. For the same cell line, the relative viability (Decitabine + Navitoclax; first compound 0.04 µM) was 0.316, the relative viability (Decitabine + Navitoclax; first compound 0.1265 µM) was 0.29 and the relative viability (Decitabine + Navitoclax; first compound 0.4 µM) was 0.215. For the same cell line, the relative viability (Decitabine + Navitoclax; first compound 1.265 µM) was 0.162, the relative viability (Decitabine + Navitoclax; first compound 4 µM) was 0.145 and the relative viability (Decitabine + Crizotinib; first compound 0.04 µM) was 0.483. It also gave a relative viability (Decitabine + Crizotinib; first compound 0.1265 µM) of 0.451, a relative viability (Decitabine + Crizotinib; first compound 0.4 µM) of 0.398 and a relative viability (Decitabine + Crizotinib; first compound 1.265 µM) of 0.209. It also gave a relative viability (Decitabine + Crizotinib; first compound 4 µM) of 0.168, a relative viability ([1]; first compound 0.001 µM) of 0.428 and a relative viability ([1]; first compound 0.003162 µM) of 0.381. It also gave a relative viability ([1]; first compound 0.01 µM) of 0.348, a relative viability ([1]; first compound 0.03162 µM) of 0.334 and a relative viability ([1]; first compound 0.1 µM) of 0.205.
